This assay has as its target T1, mGlyT-1b (Mus musculus, UniProt P28571).
T1 construct: host or cells: Flp-in-CHO
T1 sequence (P28571 1-651 isoform P28571-2): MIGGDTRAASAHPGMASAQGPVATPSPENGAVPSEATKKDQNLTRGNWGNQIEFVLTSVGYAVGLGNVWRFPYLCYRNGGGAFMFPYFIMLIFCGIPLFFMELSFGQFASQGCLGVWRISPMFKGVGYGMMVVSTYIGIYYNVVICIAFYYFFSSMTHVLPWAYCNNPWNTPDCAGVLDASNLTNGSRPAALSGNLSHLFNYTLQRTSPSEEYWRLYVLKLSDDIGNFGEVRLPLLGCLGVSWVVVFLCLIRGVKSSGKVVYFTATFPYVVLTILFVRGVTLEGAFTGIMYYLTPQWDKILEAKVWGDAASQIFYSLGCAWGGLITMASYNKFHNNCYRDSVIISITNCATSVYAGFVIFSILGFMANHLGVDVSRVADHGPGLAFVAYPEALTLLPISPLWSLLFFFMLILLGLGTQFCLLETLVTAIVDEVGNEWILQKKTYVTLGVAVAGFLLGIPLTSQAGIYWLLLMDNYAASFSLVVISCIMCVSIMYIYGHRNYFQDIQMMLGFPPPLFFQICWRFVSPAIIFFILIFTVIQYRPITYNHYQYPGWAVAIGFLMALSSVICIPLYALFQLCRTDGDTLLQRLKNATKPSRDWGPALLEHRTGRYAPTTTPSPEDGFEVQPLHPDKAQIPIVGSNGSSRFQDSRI
Description: Glycine Uptake Inhibition Assay (mGlyT-1b). It counts as cell-based. The note with it: [3H]-glycine uptake in Flp-in-CHO cells transfected with mGlyT-1b cDNA; 20 min at 22° C.; read-out: GlyT-1 IC50. Here is the method:
DMEM complete medium: Nutrient mixture F-12 (Gibco Life-technologies), fetal bovine serum (FBS) 5%, (Gibco life technologies), Penicillin/Streptomycin 1% (Gibco life technologies), Hygromycin 0.6 mg/ml (Gibco life technologies), Glutamine 1 mM Gibco life technologies)
Uptake buffer (UB): 150 mM NaCl, 10 mM Hepes-Tris, pH 7.4, 1 mM CaCl2, 2.5 mM KCl, 2.5 mM MgSO4, 10 mM (+) D-glucose.
Flp-in™-CHO (Invitrogen Cat n^o R758-07) cells stably transfected with mGlyT1b cDNA.
Glycine Uptake Inhibition Assay (mGlyT-1b)
On day 1 mammalian cells, (Flp-in™-CHO), transfected with mGlyT-1b cDNA, were plated at the density of 40,000 cells/well in complete F-12 medium, without hygromycin in 96-well culture plates. On day 2, the medium was aspirated and the cells were washed twice with uptake buffer (UB). The cells were then incubated for 20 min at 22° C. with either (i) no potential competitor, (ii) 10 mM non-radioactive glycine, (iii) a concentration of a potential inhibitor. A range of concentrations of the potential inhibitor was used to generate data for calculating the concentration of inhibitor resulting in 50% of the effect (e.g. IC50, the concentration of the competitor inhibiting glycine uptake of 50%). A solution was then immediately added containing [^3H]-glycine 60 nM (11-16 Ci/mmol) and 25 μM non-radioactive glycine. The plates were incubated with gentle shaking and the reaction was stopped by aspiration of the mixture and washing (three times) with ice-cold UB. The cells were lysed with scintillation liquid, shaken 3 hours and the radioactivity in the cells was counted using a scintillation counter.

One may read the IC50 as the concentration at which inhibition is half-maximal. With `O=C(CNC(=O)c1ccccc1)NC(c1ccccc1)c1cccc(C(F)(F)F)c1` (racemic) [Example 1.30, rac-N-({[Phenyl-(3-trifluoromethyl-phenyl)-methyl]-carbamoyl}-methyl)-benzamide], the IC50 worked out at 0.054 µM. With `O=C(CNC(=O)c1ccc([N+](=O)[O-])s1)NC(c1ccccc1)c1ccc(Cl)cc1` (racemic) [Example 1.32, rac-5-Nitro-thiophene-2-carboxylic acid ({[(4-chloro-phenyl)-phenyl-methyl]-carbamoyl}-methyl)-amide], the IC50 is 0.015 µM. As for `N#Cc1ccc(C(=O)NCC(=O)NC(c2ccccc2)c2cccc(C(F)(F)F)c2)cc1` (racemic) [Example 1.44, rac-4-Cyano-N-({[phenyl-(3-trifluoromethyl-phenyl)-methyl]-carbamoyl}-methyl)-benzamide], the figure is 0.019 µM; as for `O=C(CNC(=O)c1ccc(F)cc1)NC(c1ccccc1)c1ccc(F)cc1` (racemic) [Example 1.69, rac-4-Fluoro-N-({[(4-fluoro-phenyl)-phenyl-methyl]-carbamoyl}-methyl)-benzamide], 0.088 µM.

Take `O=C(CNC(=O)c1ccc(F)cc1)NC(c1ccccc1)c1cc(F)cc(F)c1` (racemic) [Example 1.72, rac-N-({[(3,5-Difluoro-phenyl)-phenyl-methyl]-carbamoyl}-methyl)-4-fluoro-benzamide]: the IC50 turned out to be 0.025 µM. For `O=C(CNC(=O)c1ccc(F)cc1)NC(c1ccc(Cl)cc1)c1cccc(C(F)(F)F)c1` (racemic) [Example 1.76, rac-N-({[(4-Chloro-phenyl)-(3-trifluoromethyl-phenyl)-methyl]-carbamoyl}-methyl)-4-fluoro-benzamide], the concentration for half-maximal inhibition (IC50) was 0.074 µM. Consider `O=C(CNC(=O)c1ccc(F)cc1)NC(c1ccc(F)cc1)c1cccc(C(F)(F)F)c1` (racemic) [Example 1.77, rac-4-Fluoro-N-({[(4-fluoro-phenyl)-(3-trifluoromethyl-phenyl)-methyl]-carbamoyl}-methyl)-benzamide], for which the IC50 is 0.048 µM. Regarding `Cc1ccc(C(NC(=O)CNC(=O)c2ccc(F)cc2)c2cccc(C(F)(F)F)c2)cc1` (racemic) [Example 1.78, rac-4-Fluoro-N-({[p-tolyl-(3-trifluoromethyl-phenyl)-methyl]-carbamoyl}-methyl)-benzamide], the half-inhibitory concentration (IC50) worked out at 0.058 µM. As for `Cc1ccc(C(=O)NCC(=O)NC(c2cccc(F)c2)c2cccc(F)c2)s1` [Example 1.86, 5-Methyl-thiophene-2-carboxylic acid ({[bis-(3-fluoro-phenyl)-methyl]-carbamoyl}-methyl)-amide], the IC50 was determined as 0.042 µM. On to `O=C(CNC(=O)c1ccsc1)NC(c1cccc(F)c1)c1cccc(F)c1` [Example 1.98, Thiophene-3-carboxylic acid ({[bis-(3-fluoro-phenyl)-methyl]-carbamoyl}-methyl)-amide], for which the IC50 came out at 0.028 µM.
